Reference: US9526718B2, “Combination of effective substances causing synergistic effects of multiple targeting and use thereof” (VIVOZON, INC., priority 2011, dated 2016)

Legend:
[1] = test system: neuropathic pain rat model (SNL); experiment: Neuropathic pain rat model (spinal nerve ligation, SNL), von Frey up-down mechanical threshold; format: in vivo; details: Example 1, s.c., alone or combined, MDL 11,939 2 or 5 mg/kg, ORG-25543 10 or 20 mg/kg, 30 and 60 min after administration
Experimental: In order to prepare a neuropathic pain rat model (spinal nerve ligation (SNL) model), a male adult Sprague-Dawley rat was anaesthetized with isoflurane and its spinal nerves L5 were tied firmly (Kim and Chung, An experimental model for peripheral neuropathy produced by segmental spinal nerve ligation in the rat. Pain, 50: 355-363, 1992). One week later after surgical operation, MDL 11,939 and ORG-25543 were administered respectively or in combination thereof, and a pain relieving effect was monitored.
MDL 11,939 (Tocris Bioscience, USA) and ORG-25543 (CBvest inc, Korea) were dissolved in DMA/PG (2:8). MDL 11,939 was subcutaneously injected into the rat model and, immediately, ORG-25543 was subcutaneously injected into another part of the rat model. Then, 30 minutes and 60 minutes after administration, the extent of pain suppression was analyzed based on behaviors of the rat model.
The behavioral experiment was carried out with strict observance of clinical test procedures including criteria on randomization, a blind test, and use of a control group. By providing a mechanical stimulus to the left sole of the foot, a shrinking reaction to the stimulus was measured. This measurement value was determined by an up-down method using a von Frey monofilament (Baik et al., 2003 E. J. Baik, J. M. Chung and K. Chung, Peripheral norepinephrine exacerbates neuritis-induced hyperalgesia, J Pain 4 (2003), pp. 212-221; Chaplan et al., 1994 S. R. Chaplan, F. W. Bach, J. W. Pogrel, J. M. Chung and T. L. Yaksh, Quantitative assessment of tactile allodynia in the rat paw, J Neurosci Methods 53 (1994), pp. 55-63; Dixon, 1980 W. J. Dixon, Efficient analysis of experimental observations, Annu. Rev. Pharmacol. Toxicol. 20 (1980), pp. 441-462).
In the same manner as Example 1, a male adult Sprague-Dawley rat was anaesthetized with isoflurane and its spinal nerves L5 were tied firmly. […]

serotonin release = details: hypothalamic, rat; cited from earlier work
5-HT2A receptor = 5-HT2A receptor (Homo sapiens, UniProt P28223); details: cited from earlier work
Sequence of 5-HT2A receptor (P28223 whole entry): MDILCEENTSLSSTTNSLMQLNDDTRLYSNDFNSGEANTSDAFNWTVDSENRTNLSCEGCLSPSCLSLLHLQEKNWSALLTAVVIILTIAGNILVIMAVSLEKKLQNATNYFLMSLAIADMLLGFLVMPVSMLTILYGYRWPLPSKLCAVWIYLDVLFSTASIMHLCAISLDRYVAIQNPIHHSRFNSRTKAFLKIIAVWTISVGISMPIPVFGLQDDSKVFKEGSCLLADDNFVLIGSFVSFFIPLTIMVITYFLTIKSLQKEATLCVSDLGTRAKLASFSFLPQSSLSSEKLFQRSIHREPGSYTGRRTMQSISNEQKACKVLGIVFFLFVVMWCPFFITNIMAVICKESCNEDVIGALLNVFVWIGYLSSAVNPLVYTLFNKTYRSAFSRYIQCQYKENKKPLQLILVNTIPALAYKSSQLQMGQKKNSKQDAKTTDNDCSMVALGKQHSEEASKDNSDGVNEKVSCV

For `OC(c1ccccc1)C1CCN(CCc2ccccc2)CC1` (centres unmarked) [MDL 11,939], the “pain relieving (analgesic) effect” value [1] was “no or very little pain relieving effect”.

With `COc1cc(C(=O)NCC2(N(C)C)CCCC2)cc(OC)c1OCc1ccccc1` [ORG-25543] the “pain relieving (analgesic) effect” value [1] was “no effect” and the “pain relieving (analgesic) effect” value ([1]; listed as ORG2553) was “no or very little pain relieving effect”.

In the case of `COc1cc2c(cc1OC)[C@@H]1Cc3ccc(OC)c(OC)c3CN1CC2` [d1-tetrahydropalmatine], the serotonin release (serotonin release) is listed as “mediates inhibition of serotonin release”.

For `CC(C)=CCc1c(O)cc2oc3cc(O)c(O)c(CC=C(C)C)c3c(=O)c2c1O` [γ-mangostin], the “antagonistic effect with respect to 5-HT2A receptor” value (5-HT2A receptor) is given as “antagonistic effect”.
